Data from US20110262359A1, “COMPOSITIONS COMPRISING ENZYME-CLEAVABLE PRODRUGS OF ACTIVE AGENTS AND INHIBITORS THEREOF” (priority 2010, published 2011).

Tests used:
[1] = Oral administration of Compound PC-4 and Compound 101 trypsin inhibitor to rats; format: in vivo
[2] = Oral administration of Compound PC-3 and Compound 101 trypsin inhibitor to rats; format: in vivo
[3] = biological target: T1, trypsin from bovine pancreas (Bos taurus, UniProt P00760); assay: In vitro trypsin conversion of ketone-modified opioid prodrugs to oxycodone or hydrocodone and inhibition by Compound 109; format: biochemical; design: trypsin from bovine pancreas; purchased Sigma-Aldrich T8003; host or cells: bovine pancreas (tissue-derived); details: 241 BAEE U trypsin/mL; 0.761 mM prodrug; no inhibitor; 37° C.
T1 sequence (P00760 24-246): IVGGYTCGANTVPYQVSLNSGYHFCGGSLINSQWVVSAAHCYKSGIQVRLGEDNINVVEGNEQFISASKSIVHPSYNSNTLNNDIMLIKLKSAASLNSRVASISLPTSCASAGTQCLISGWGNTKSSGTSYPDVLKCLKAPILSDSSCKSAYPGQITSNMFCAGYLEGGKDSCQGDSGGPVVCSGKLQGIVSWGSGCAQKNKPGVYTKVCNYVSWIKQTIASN

[4] = In vitro stability of Compound KC-3 to household chemicals and enzyme preparations; format: physicochemical; details: vodka, baking soda, WINDEX, vinegar at RT or 80° C.; GNC Super Digestive, tenderizer, subtilisn at RT; 1 or 24 hr
Description: Samples were incubated as described. Aliquots were removed at 1 hr and 24 hr and stabilized by adding each to a solution of 50% or 100% of 85% phosphoric acid solution to achieve a final pH of less than or equal to pH 4. The stabilized aliquots were then diluted 4- to 6-fold with water, vortex-mixed and applied to HPLC.

[5] = In vivo tolerability of Compound KC-3 in rats (IV); details: rat IV
Description: Male naïve Sprague-Dawley rats, 4 per dose, were used in the study. Rats were weighed, and then placed under a heat lamp for 15-20 minutes to dilate the lateral tail veins. […] Before dosing, rats were placed in Broome restrainers and the drug was introduced into one of the tail veins using a syringe and needle. […] Blood samples were collected 5 minutes post-dose via the saphenous vein. The rats were observed up to 24 hours.

[6] = male, Sprague Dawley, rat, in vivo
[7] = Oral administration of Compound PC-1 and SBTI trypsin inhibitor to rats (hydromorphone in blood); details: for Maximum concentration (Cmax) of hydromorphone in rat blood: PC-1 20 mg/kg
[8] = Oral administration of Compound PC-1 and BBSI inhibitor to rats; format: in vivo; details: PC-1 20 mg/kg
[9] = Oral administration of Compound PC-1 and SBTI in the presence of ovalbumin to rats (hydromorphone in plasma); format: in vivo; details: for Maximum concentration (Cmax) of hydromorphone in rat plasma: PC-1 20 mg/kg
[10] = Oral administration of Compound PC-2 and SBTI trypsin inhibitor to rats; format: in vivo; details: for Cmax of hydromorphone in rat plasma: PC-2 20 mg/kg
[11] = Oral administration of Compound PC-3 and SBTI trypsin inhibitor to rats; format: in vivo; details: for Cmax of hydromorphone in rat plasma / Tmax of hydromorphone in rat plasma: PC-3 20 mg/kg
[12] = biological target: T1, trypsin from bovine pancreas; assay: In vitro trypsin conversion of prodrugs to hydromorphone and inhibition by trypsin inhibitor
[13] = Oral administration of Compound PC-4 and SBTI trypsin inhibitor to rats; format: in vivo; details: for Cmax of HM in rat plasma / Tmax of HM in rat plasma: PC-4 20 mg/kg
trypsin = biological target: T2, trypsin (Bos taurus, UniProt P00760); assay: In vitro IC50 of trypsin inhibitors, modified trypsin assay; format: biochemical; details: trypsin inhibition
T2 sequence (P00760 24-246): T1 sequence (P00760 24-246)

[14] = PC-3 20 mg/kg, Compound 101 10 mg/kg
[15] = PC-4 20 mg/kg, Compound 101 10 mg/kg

With `CCOC(=O)N1CCN(C(=O)[C@H](CCCNC(=N)N)NS(=O)(=O)c2ccc3ccccc3c2)CC1` [Compound 101, (S)-ethyl 4-(5-guanidino-2-(naphthalene-2-sulfonamido)pentanoyl)piperazine-1-carboxylate] the “effect of Compound 101 on release of hydromorphone from Compound PC-4” value ([1]; rat PO, PC-4 20 mg/kg with Compound 101 10 mg/kg) was “attenuates Compound PC-4's ability to release hydromorphone, both with respect to suppressing Cmax and delaying Tmax” and the “effect of Compound 101 on release of hydromorphone from Compound PC-3” value ([2]; rat PO, PC-3 20 mg/kg with Compound 101 10 mg/kg) was “attenuates Compound PC-3's ability to release hydromorphone, both with respect to suppressing Cmax and delaying Tmax”.

With `COc1ccc2c3c1O[C@H]1C(OC(=O)N(C)CCNC(=O)[C@H](CCCNC(=N)N)NC(=O)CC(=O)O)=CC[C@@]4(O)[C@@H](C2)N(C)CC[C@]314` [Compound KC-3, N-{(S)-4-guanidino-1-[2-(methyl-[(5R,9R,13S,14S)-4,5a-epoxy-6,7-didehydro-14-hydroxy-3-methoxy-17-methylmorphinan-6-oxy]carbonyl-amino)-ethylcarbamoyl]-butyl}-malonamic acid] the “Rate of oxycodone formation, umol/h/BAEE U Average ± sd” value [3] was 0.0684 ± 0.0009 umol/h/BAEE U, the “conversion of Compound KC-3 to oxycodone on exposure to household chemicals and enzyme preparations” value [4] was “less than 10%” and the “dose tolerated by rats” value [5] was 97 µmol/kg. The “time to recover to normal activity” value ([5]; KC-3 97 μmol/kg) was at most 2 min, the “Compound conc. in CSF” value [6] was 34.1 ng/mL and the “Compound conc. in Plasma, ng/mL” value [6] was 59,225 ng/mL. The Plasma/CSF partitioning coefficient [6] was 1,737.

In the case of `CC(=O)NC(CCCNC(=N)N)C(=O)NCCN(C)C(=O)Oc1ccc2c3c1OC1C(=O)CCC4C(C2)N(C)CCC314` (centres unmarked) [Compound PC-1, hydromorphone 3-(N-methyl-N-(2-N′-acetylarginylamino)) ethylcarbamate], the “Maximum concentration (Cmax) of hydromorphone in rat blood” value (from here on “Maximum concentration … in rat blood”) ([7]; SBTI 0 mg/kg) is reported as 16.5 ± 5.3 ng/mL, the “Maximum concentration … in rat blood” value ([7]; SBTI 10 mg/kg) is reported as 8.9 ± 1.8 ng/mL and the “Maximum concentration … in rat blood” value ([7]; SBTI 100 mg/kg) is reported as 6.0 ± 4.0 ng/mL. The “Maximum concentration … in rat blood” value ([7]; SBTI 500 mg/kg, lower limit of quantitation 5 ng/mL) was under 5 ng/mL, the “Maximum concentration … in rat blood” value ([7]; SBTI 1000 mg/kg, lower limit of quantitation 5 ng/mL) was under 5 ng/mL and the “Maximum concentration … in rat blood” value ([8]; BBSI 0 mg/kg, n = 4) was 16.5 ± 5.3 ng/mL. For the same molecule, the “Maximum concentration … in rat blood” value ([8]; BBSI 100 mg/kg, n = 3 (3 of the 4 rats)) was 10.6 ± 5.9 ng/mL, the “Maximum concentration … in rat blood” value ([8]; BBSI 100 mg/kg, n = 4) was 18.7 ± 17.0 ng/mL and the “Cmax of hydromorphone of the rat not included in n = 3 analysis” value ([8]; BBSI 100 mg/kg, one rat) was 43 ng/mL. The “range of Cmax of hydromorphone of the other rats” value ([8]; rat PO, BBSI 100 mg/kg, the 3 rats of the n = 3 analysis) was 6.8 to 17 ng/mL, the “Maximum concentration (Cmax) of hydromorphone in rat plasma” value (from here on “Maximum concentration … in rat plasma”) ([9]; OVA 0 mg/kg, SBTI 0 mg/kg) was 13.3 ± 3.7 ng/mL and the “Maximum concentration … in rat plasma” value ([9]; OVA 20 mg/kg, SBTI 0 mg/kg) was 11.0 ± 5.4 ng/mL. The “Maximum concentration … in rat plasma” value ([9]; OVA 100 mg/kg, SBTI 0 mg/kg) was 9.7 ± 3.1 ng/mL, the “Maximum concentration … in rat plasma” value ([9]; OVA 500 mg/kg, SBTI 0 mg/kg) was 11.6 ± 2.5 ng/mL and the “Maximum concentration … in rat plasma” value ([9]; OVA 500 mg/kg, SBTI 500 mg/kg) was 1.9 ± 0.9 ng/mL. The “Maximum concentration … in rat plasma” value ([9]; OVA 1000 mg/kg, SBTI 0 mg/kg) was 10.3 ± 3.5 ng/mL, the “plasma Tmax of hydromorphone” value ([9]; rat PO, PC-1 20 mg/kg alone) was 2.3 h and the “plasma Tmax of hydromorphone” value ([9]; rat PO, PC-1 20 mg/kg with 500 mg/kg OVA and 500 mg/kg SBTI) was 8.0 h.

For `CN(CCNC(=O)[C@@H](N)CCCNC(=N)N)C(=O)Oc1ccc2c3c1OC1C(=O)CCC4C(C2)N(C)CCC314` (stereo partly drawn) [Compound PC-2, [2-((S)-2-amino-5-guanidino-pentanoylamino)-ethyl]-methyl-carbamic acid hydromorphyl ester], the “Cmax of hydromorphone in rat plasma” value ([10]; SBTI 0 mg/kg) was 14.2 ± 2.6 ng/mL and the “Cmax of hydromorphone in rat plasma” value ([10]; SBTI 500 mg/kg) was 7.3 ± 3.5 ng/mL.

For `CC(=O)N[C@@H](CCCCN)C(=O)NCCN(C)C(=O)Oc1ccc2c3c1OC1C(=O)CCC4C(C2)N(C)CCC314` (stereo partly drawn) [Compound PC-3, (S)-2-Acetylamino-6-amino-hexanoic acid (2-methylamino-ethyl)-amide hydromorphone ester], the “Cmax of hydromorphone in rat plasma” value ([11]; SBTI 500 mg/kg) was 2.3 ± 1.7 ng/mL, the “Tmax of hydromorphone in rat plasma” value ([11]; SBTI 500 mg/kg) was 7.3 h and the “Cmax of hydromorphone in rat plasma” value ([11]; no inhibitor) was 9.0 ± 3.1 ng/mL. The “Tmax of hydromorphone in rat plasma” value ([11]; no inhibitor) was 2.3 h, the “Cmax of HM in rat plasma” value [2, 14] was 3.8 ± 2.9 ng/mL and the “Tmax of HM in rat plasma” value [2, 14] was 3.5 h.

For `CCN(CCNC(=O)[C@H](CCCNC(=N)N)NC(C)=O)C(=O)Oc1ccc2c3c1OC1C(=O)CCC4C(C2)N(C)CCC314` (some centres unmarked) [Compound PC-4], the “Rate of HM formation, umols/h/umol trypsin” value ([12]; no trypsin inhibitor, (n = 1)) was 322 umols/h/umol trypsin, the “Rate of HM formation, umols/h/umol trypsin Average ± sd” value ([12]; with trypsin inhibitor 3,089 uM Compound 109) was 3.27 ± 1.87 umols/h/umol trypsin and the “Cmax of HM in rat plasma” value ([13]; SBTI 500 mg/kg) was 7.5 ± 2.1 ng/mL. The “Tmax of HM in rat plasma” value ([13]; SBTI 500 mg/kg) was 6.5 h, the “Cmax of HM in rat plasma” value ([13]; no inhibitor, 7 rats) was 7.7 ± 2.3 ng/mL and the “Tmax of HM in rat plasma” value ([13]; no inhibitor, 7 rats) was 2.3 h. The “Cmax of HM in rat plasma” value [1, 15] was 4.8 ± 1.4 ng/mL and the “Tmax of HM in rat plasma” value [1, 15] was 6.0 h.

B1: SBTI: trypsin inhibitor from Glycine max (soybean) (Catalog No. 93620, ˜10,000 units per mg, Sigma-Aldrich) (protein, UniProt P01070 25-205, looked up)
Trypsin inhibitor A: DFVLDNEGNPLENGGTYYILSDITAFGGIRAAPTGNERCPLTVVQSRNELDKGIGTIISSPYRIRFIAEGHPLSLKFDSFAVIMLCVGIPTEWSVVEDLPEGPAVKIGENKDAMDGWFRLERVSDDEFNNYKLVFCPQQAEDDKCGDIGISIDHDDGTRRLVVSKNKPLVVQFQKLDKESL
With B1 the “effect of SBTI on release of hydromorphone from Compound PC-2” value ([10]; rat PO, PC-2 20 mg/kg with SBTI 500 mg/kg) was “attenuates Compound PC-2's ability to release hydromorphone, both with respect to suppressing Cmax and delaying Tmax”, the “effect of SBTI on release of hydromorphone from Compound PC-4” value ([13]; rat PO, PC-4 20 mg/kg with SBTI 500 mg/kg) was “attenuates Compound PC-4's ability to release hydromorphone, at least with respect to delaying Tmax” and the “effect of SBTI on release of hydromorphone from Compound PC-1” value ([7]; rat PO, PC-1 20 mg/kg with SBTI 10 to 1000 mg/kg) was “attenuates Compound PC-1's ability to release hydromorphone in a dose-dependent manner”. For the same molecule, the IC50 (trypsin; Table 7) was 270 nM, the IC50 (trypsin; Table 20) was 270 nM and the “effect of SBTI on release of hydromorphone from Compound PC-3” value ([11]; rat PO, PC-3 20 mg/kg with SBTI 500 mg/kg) was “attenuates Compound PC-3's ability to release hydromorphone, both with respect to suppressing Cmax and delaying Tmax”.

B2: ovalbumin: Albumin from chicken egg white (Catalog No. A7641, Sigma-Aldrich), used as a non-trypsin inhibitor protein control (protein, UniProt P01012 2-386, looked up)
Ovalbumin: GSIGAASMEFCFDVFKELKVHHANENIFYCPIAIMSALAMVYLGAKDSTRTQINKVVRFDKLPGFGDSIEAQCGTSVNVHSSLRDILNQITKPNDVYSFSLASRLYAEERYPILPEYLQCVKELYRGGLEPINFQTAADQARELINSWVESQTNGIIRNVLQPSSVDSQTAMVLVNAIVFKGLWEKAFKDEDTQAMPFRVTEQESKPVQMMYQIGLFRVASMASEKMKILELPFASGTMSMLVLLPDEVSGLEQLESIINFEKLTEWTSSNVMEERKIKVYLPRMKMEEKYNLTSVLMAMGITDVFSSSANLSGISSAESLKISQAVHAAHAEINEAGREVVGSAEAGVDAASVSEEFRADHPFLFCIKHIATNAVLFFGRCVSP
In the case of B2, the “effect of ovalbumin on release of hydromorphone from Compound PC-1” value ([9]; rat PO, PC-1 20 mg/kg with OVA 20 to 1000 mg/kg) is reported as “does not significantly affect Compound PC-1's ability to release hydromorphone”.
